Assay results reported in patent US7179800B2 (priority 2002, dated 2007).
Read-outs that look alike come from different tables or passages of the source.

Tests used:
[1] = target: T1, CB1 receptor (Rattus norvegicus, UniProt P20272); settings: values from Hanu et al 1999; ligand [3H]HU-243; cited from earlier work
[2] = tested on: Male ICR mice; assay: Suppression of spontaneous activity (SA) in mice; format: in vivo, mouse; settings: for S.A % effect at dose: @ 30 (mg/kg); for SA percent effect at the highest dose / S.A ED50 / ED50 SA (suppression of spontaneous activity) / ED50: mice, i.v.; for SA percent effect at the highest dose: 30 mg/kg, % inhibition of activity of vehicle group; for ED50: Mus musculus, iv
Description: (§1) Male ICR mice (25–32 g), obtained from Harlan (Dublin, Va.), were housed in groups of five. All animals were kept in a temperature-controlled (20–22° C.) environment with a 12-hour light-dark cycle (lights on at 7 a.m.). Separate mice were used for testing each drug dose in the in vivo behavioral procedures. Brain tissue for binding studies was obtained from male Sprague-Dawley rats (150–200 g) purchased from Harlan Laboratories (Dublin, Va.).
(§2) Measurement of spontaneous activity in mice occurred in standard activity chambers interfaced with a Digiscan Animal Activity Monitor (Omnitech Electronics, Inc., Columbus, Ohio). A standard tail-flick apparatus and a digital thermometer (Fisher Scientific, Pittsburgh, Pa.) were used to measure antinociception and rectal temperature, respectively
(§3) Resorcinols were synthesized in our labs (Organix, Inc., Woburn, Mass.) according to the procedure specified below and were suspended in a vehicle of absolute ethanol, Emulphor-620 (Rhone-Poulenc, Inc., Princeton, N.J.), and saline in a ratio of 1:1:18. Drugs were administered to the mice intravenously (i.v.) in the tail vein at a volume of 0.1 ml/10 g.
(§4) Prior to testing in the behavioral procedures, mice were acclimated to the experimental setting (ambient temperature 22–24° C.) overnight. Pre-injection control values were determined for rectal temperature and tail-flick latency (in sec). […] Tail-flick latency was measured at 20 min post-injection. Maximum latency of 10 sec was used. Antinociception was calculated as percent of maximum possible effect {% MPE=[(test−control latency)/(10-control)]×100}. Control latencies typically ranged from 1.5 to 4.0 sec. At 30 min post-injection, rectal temperature was measured This value was expressed as the difference between control temperature (before injection) and temperatures following drug administration (° C.). Different mice (n=5–6 per dose) were tested for each dose of each compound. Each mouse was tested in each of the 3 procedures.
(§5) Based on data obtained from numerous previous studies with cannabinoids, maximal cannabinoid effects in each procedure were estimated as follows: 90% inhibition of spontaneous activity, 100% MPE in the tail flick procedure, and −6° C. change in rectal temperature. ED50's were defined as the dose at which half maximal effect occurred. For drugs that produced one or more cannabinoid effect, ED50's were calculated separately using least-squares linear regression on the linear part of the dose-effect curve for each measure in the mouse tetrad, plotted against log10 transformation of the dose. For the purposes of potency comparison, potencies were expressed as μmol/kg.

[3] = target: T1, CB1 receptor; assay: CB1 binding procedure: displacement of [3H]CP 55,940 from rat whole-brain P2 membranes; parameters: whole brain was homogenized and centrifuged; from tissue; host or cells: rat whole brain, P2 membrane fraction; settings: for Ki: [3H]CP 55,940, rat brain membranes
Description: as §1
The methods used for tissue preparation and binding have been described previously (Compton et al., 1993) and are similar to those described by Devane et al. (1988). All assays, as described briefly below, were performed in triplicate, and the results represent the combined data from three to six individual experiments.
Following decapitation and rapid removal of the brain, whole brain was homogenized and centrifuged. The resulting pellet was termed P1. The supernatant was saved and combined with the two subsequent supernatants obtained from washing of the P1 pellet. The combined supernatant fractions were centrifuged, resulting in the P2 pellet. After further incubation and centrifuging, this pellet was resuspended in assay buffer to a protein concentration of approximately 2 mg/ml. The membrane preparation was quickly frozen in a bath solution of dry ice and 2-methylbutane (Sigma Chemical Co., St. Louis, Mo.), then stored at −80° C. for no more than 2 weeks. Prior to performing a binding assay an aliquot of frozen membrane was rapidly thawed and protein values determined by the method of Bradford (1976).
Binding was initiated by the addition of 150 μg of P2 membrane to test tubes containing 1 nM of [^3H] CP 55,940 (79 Ci/mmol) and a sufficient quantity of buffer to bring the total incubation volume to 1 ml. Nonspecific binding was determined by the addition of 1 μM unlabeled CP 55,940. Following incubation at 30° C. for 1 hr, binding was terminated by addition of ice cold buffer and vacuum filtration through pretreated filters in a 12-well sampling manifold (Millipore, Bedford, Mass.). After washing, filters were placed into plastic scintillation vials (Packard, Downer Grove, Ill.) and shaken. The quantity of radioactivity present was determined by liquid scintillation spectrometry.
(§6) In addition, multiple linear regression was used to calculate the overall degree of relationship between CB1 binding affinity and potency in the mouse measures for all active cannabinoids. […] Ki values for CB1 and CB2 binding were obtained from Scatchard displacement analysis as determined via EBDA program of the KELL software package (Biosoft, Milltown, N.J.).

[4] = target: T2, CB2 receptor (Homo sapiens, UniProt P34972); assay: CB2 binding procedure: displacement of [3H]CP-55,940 from membranes of transfected CHO cells; settings: for CB1/CB2 (ratio of Ki): CB1 Ki divided by CB2 Ki; for Ki: [3H]CP-55,940, transfected CHO cell membranes; for fold decrease in CB2 affinity: relative to the comparator analog
T2 construct: expressed in transfected cells; host or cells: CHO cells, G418-selected transfected line
T2 sequence (P34972 whole entry): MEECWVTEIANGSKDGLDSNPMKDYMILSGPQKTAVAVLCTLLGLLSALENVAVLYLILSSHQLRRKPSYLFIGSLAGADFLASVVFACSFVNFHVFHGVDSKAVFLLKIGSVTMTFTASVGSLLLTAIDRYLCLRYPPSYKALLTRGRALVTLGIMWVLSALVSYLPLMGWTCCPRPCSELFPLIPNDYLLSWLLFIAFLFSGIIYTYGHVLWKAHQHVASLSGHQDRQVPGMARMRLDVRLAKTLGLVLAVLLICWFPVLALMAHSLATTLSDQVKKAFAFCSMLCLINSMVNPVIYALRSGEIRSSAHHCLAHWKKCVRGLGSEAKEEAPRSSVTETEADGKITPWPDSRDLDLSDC
Description: Membranes for CB2 binding were obtained from CHO cells. The transfected cell line was maintained in Dublecco's Modified Eagle Medium (Gibco BRL, Grand Island, N.Y.) with 10% fetal clone II (HyClone Laboratories, Inc., Logan, Utah) plus 0.3 to 0.5 mg/ml G418 (to maintain selective pressure) under 5% CO2 at 37% C. Cells were harvested with 1 mM EDTA in phosphate-buffered saline and were centrifuged at 1000×g for 5 min at 4% C. The supernatant was saved and the P1 pellet was resuspended in centrifugation buffer. Homogenization and centrifugation were repeated twice and the combined supernatant fractions were centrifuged at 40,000×g for 30 min at 4% C. The P2 pellet was resuspended in centrifugation buffer 2 (Tris HCl, 50 mM; EDTA, 1 mM; and MgCl2, 3 mM, pH 7.4) to a protein concentration of approximately 2 mg/ml. Protein concentrations were determined by the method of Bradford (1976) using Bio-Rad Protein Assay (Bio-Rad, Richmond, Calif.) and BSA standards (fatty acid free, Sigma Chemical Co., St. Louis, Mo.). The membrane preparation was divided into amounts convenient for binding assays and frozen rapidly in dry ice and stored at −80% C.
Binding was initiated by the addition of 50 μg of quickly thawed P2 membranes to test tubes containing [^3H]CP-55,940 (final reaction concentration 0.5 nM), an appropriate concentration of unlabeled CP-55,940 or test drug, and sufficient quantity of assay buffer (50 mM Tris-HCl, 1 mM EDTA, 3 mM MgCl2, 5 mg/ml bovine serum albumin, pH 7.4) to bring the total incubation volume to 0.5 ml. Concentration of [^3H]CP-55,940 in saturation studies ranged from 50 to 10,000 pM. Nonspecific binding was determined by the addition of 1 μM unlabeled CP-55,940. CP-55,940 and all cannabinoid analogs were prepared by suspension in assay buffer from a 1 mg/ml ethanolic stock without evaporation of the ethanol (final concentration of no more than 0.4%). In competition studies, analog concentrations ranged from 0.1 nM to 10 μM. After incubation at 30% C for 1 hr, binding was terminated by the addition of 2 ml of ice-cold wash buffer (50 mM Tris-HCl and 1 mg/ml BSA) and vacuum filtration through pre-treated filters in a 12-well sampling manifold (Millipore, Bedford, Mass.). Reaction vessels were washed once with 2 ml of ice-cold wash buffer. Filters were placed into 7-ml plastic scintillation vials (RPI Corp., Mount Prospect, Ill.) with 4 ml of Budget-Solve (RPI Corp.). After shaking for 30 min, the radioactivity present was determined by liquid scintillation spectrometry. Three reaction vessels were used for each drug concentration in each assay. The results represent the combined data of three independent experiments. All assays were performed in siliconized test tubes, which were prepared by air drying (12 hr) inverted borosilicate tubes after two rinses with a 0.1% solution of AquaSil (Pierce, Rockford, Ill.). The GF/C glass-fiber filters (2.4 cm, Baxter, McGaw Park, Ill.) were pre-treated in a 0.1% solution of pH 7.4 polyethylenimine (Sigma Chemical Co.) for at least 6 hr.
as §6

[5] = tested on: Male ICR mice; assay: Change in rectal temperature (RT) in mice; format: in vivo, mouse; settings: for RT effect at the highest dose (change in rectal temperature): 30 mg/kg; for ED50: Mus musculus, iv
Description: as §1, §2, §3, §4, §5

[6] = tested on: Male ICR mice; assay: Tail-flick antinociception (TF, % MPE) in mice; format: in vivo, mouse; settings: for TF percent effect (% MPE) at the highest dose: 30 mg/kg; for ED50: Mus musculus, iv
Description: as §1, §2, §3, §4, §5

[7] = tested on: Male ICR mice; assay: Lethality noted in the mouse behavioral procedures; format: in vivo; settings: Table 6; @ 30 (mg/kg)
Description: as §3, §4

[8] = 95% confidence limits in parentheses
[9] = means ± SEM, read-out: Ki (nM) CB1
[10] = means ± SEM, read-out: Ki (nM) CB2
[11] = Table 6, mice, i.v., read-out: R.T. ED50
[12] = mice, i.v., 95% confidence limits in parentheses, read-out: ED50 RT (rectal temperature)
[13] = Table 6, mice, i.v., read-out: T.F. ED50
[14] = mice, i.v., 95% confidence limits in parentheses, read-out: ED50 TF (antinociceptive effect in tail flick assay)
[15] = mice, i.v., 95% confidence limits in parentheses

T1 sequence (P20272 whole entry): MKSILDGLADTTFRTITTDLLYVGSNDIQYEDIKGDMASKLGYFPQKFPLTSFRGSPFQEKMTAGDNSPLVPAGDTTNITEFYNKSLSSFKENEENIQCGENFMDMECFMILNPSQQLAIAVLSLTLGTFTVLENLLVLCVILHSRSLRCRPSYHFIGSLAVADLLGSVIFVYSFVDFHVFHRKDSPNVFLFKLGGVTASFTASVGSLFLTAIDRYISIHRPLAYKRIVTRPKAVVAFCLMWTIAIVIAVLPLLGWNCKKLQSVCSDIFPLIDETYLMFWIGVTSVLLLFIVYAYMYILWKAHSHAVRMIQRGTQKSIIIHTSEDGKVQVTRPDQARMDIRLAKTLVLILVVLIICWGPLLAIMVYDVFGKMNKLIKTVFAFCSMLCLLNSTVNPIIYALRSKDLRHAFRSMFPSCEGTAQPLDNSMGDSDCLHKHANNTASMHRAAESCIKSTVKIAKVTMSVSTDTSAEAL

| Structure (SMILES) | S.A % effect at dose ([2]; Table 6) | SA percent effect at the highest dose [2] | CB1/CB2 (ratio of Ki) [4] | RT effect at the highest dose (change in rectal temperature) ([5]; mice, i.v.) | T.F. % effect at dose ([6]; Table 6, @ 30 (mg/kg)) | TF percent effect (% MPE) at the highest dose ([6]; mice, i.v.) | Ki [3, 9] [nM] | Ki [4, 10] [nM] | also measured |
| --- | --- | --- | --- | --- | --- | --- | --- | --- | --- |
| CCCCCCC(C)(C)c1cc(OC)c([C@@H]2C=C(CO)[C@@H]3C[C@H]2C3(C)C)c(OC)c1 [HU-308] |  |  |  |  |  |  |  |  | Ki [1]: > 10000 nM |
| CCCCCCC(C)(C)c1cc(O)c(C2CCC(c3ccccc3)CC2)c(O)c1 (stereo not shown) [O-1663, 2-(4-Phenylcyclohexyl)-5-(1′,1′-dimethylheptyl)-resorcinol] | 32% @ 30 | 32%(30) | 16 | −2.2(30) °C | 7% @ 30 | 7%(30) |  |  | Ki ([3]; Ki (nM) CB1, means ± SEM): 144 ± 22 nM; fold decrease in CB1 affinity ([3]; relative to the comparator analog): 3 fold; Ki ([4]; Ki (nM) CB2, means ± SEM): 9 ± 2 nM; fold decrease in CB2 affinity [4]: 2 fold |
| CCCCCCC(C)(C)c1cc(O)c(C2CCCC(C)C2)c(O)c1 (single isomer, unassigned) [O-1797A] |  |  | 12 |  |  |  | 5 ± 0.6 | 0.4 ± 0.03 | S.A ED50 ([2]; Table 6, listed as O-1297): 0.154 mg/kg; ED50 SA (suppression of spontaneous activity) [2, 8]: 0.5(0.4–0.6) μmol/kg; ED50 [5, 11]: 0.252 mg/kg; ED50 [5, 12]: 0.7 µmol/kg; ED50 [6, 13]: 0.362 mg/kg; ED50 [6, 14]: 1.1 µmol/kg |
| CCCCCCC(C)(C)c1cc(O)c(C2CCCC(C)C2)c(O)c1 (single isomer, unassigned) [O-1798B, 2-(3-Methylcyclohexyl)-5-(1′,1′-dimethylheptyl)-resorcinolisomer B] |  |  | 8 |  |  |  | 4 ± 0.6 | 0.5 ± 0.07 | S.A ED50 ([2]; Table 6): 0.070 mg/kg; ED50 SA (suppression of spontaneous activity) [2, 8]: 0.2(0.03–1.2) μmol/kg; R.T. ED50 ([5]; Table 6, mice, i.v.): 0.218 mg/kg; ED50 RT (rectal temperature) [5, 15]: 0.6(0.5–0.7) μmol/kg; T.F. ED50 ([6]; Table 6, mice, i.v.): 0.379 mg/kg; ED50 TF (antinociceptive effect in tail flick assay) [6, 15]: 1.0(0.7–1.6) μmol/kg |
| CCCCCCC(C)(C)c1cc(OC)c(C2(O)CCCC(C)C2)c(OC)c1 (single isomer, unassigned; isomer 2) [O-1967B, 1-(4-(1,1-Dimethylheptyl-2,6-dimethoxy-phenyl)-3-methyl-cyclohexaol isomer 2] | 42.9 @ 30% |  | 15 |  | 8.2% @ 30 |  | 1720 ± 105 | 111 ± 8 | R.T. effect at dose ([5]; Table 6, @ 30 (mg/kg)): 0 @ 30 °C |
| CCCCCCC(C)(C)c1cc(O)c(C2CCCC2)c(O)c1 [O-1424, 2-(Cyclopentyl)-dimethylheptyl-resorcinol] |  |  |  |  |  |  | 95 ± 6 | 7 ± 0.4 | ED50 ([2]; Table 6, read-out: S.A ED50): 8.29 mg/kg; ED50 ([2]; 95% confidence limits in parentheses, read-out: ED50 SA (suppression of spontaneous activity)): 27 µmol/kg; ED50 [5, 11]: 4.24 mg/kg; ED50 [5, 12]: 13 µmol/kg; ED50 [6, 13]: 4.48 mg/kg; ED50 [6, 14]: 13 µmol/kg |
| CCCCCCC(C)(C)c1cc(OC)c(C2CCCC(C)C2)c(OC)c1 (stereo not shown) [O-1999] | 4 @ 30% |  |  |  | 6 @ 30% |  | > 10000 | 466 ± 110 | fold decrease in CB2 affinity [4]: ~600 fold; R.T. effect at dose ([5]; Table 6, @ 30 (mg/kg)): 1 @ 30 °C |
| CCCC(C)(C)c1ccc(-c2cc(C)ccc2C(C)C)c(O)c1 [O-1532] |  | 32% | 8 | −0.4 °C |  | 7% | 876 ± 18 | 113 ± 21 |  |
| CCCCCCC(C)(C)c1cc(O)c(C2CCN(C)CC2)c(O)c1 [O-1662, 2-(1-Methylpiperidin-4-yl)-5-(1′,1′-dimethylheptyl)-re-sorcinol] |  | 87%(30) |  | −3(30) °C |  | 30%(30) | > 10000 | 5420 ± 1100 | Lethality at dose [7]: Lethal; S.A % effect at dose, stim. ([2]; Table 6, stimulation, @ 10 (mg/kg)): 77% stim.; R.T. effect at dose ([5]; Table 6, @ 10 (mg/kg)): 1 °C; T.F. % effect at dose ([6]; Table 6, @ 10 (mg/kg)): 7 @ 10% |
